Source: BindingDB's records for doi:10.1016/j.bmcl.2018.07.042 (Takeda Pharmaceutical, 2018)

Experiment: Inhibition of human CCR6 expressed in CHO cells assessed as decrease in human CCL20-dependent cell migration incubated for 4 hrs by Diff-Quik staining based assay

IC50 [µM]	Structure (SMILES)
1.4	Cc1ccc(S(=O)(=O)N2CCC(Nc3ccc(C#N)cn3)CC2)cc1
0.24	N#Cc1ccc(NC2CCN(S(=O)(=O)c3ccc(-c4ccccc4)cc3)CC2)nc1
